Where “and” joins values, the source holds several entries; their conditions need not be identical. Identical values can stand only once.
target: C. elegans (N2) complex I (NADH:ubiquinone oxidoreductase) (Caenorhabditis elegans, UniProt P24887+Q93873+Q94360); test: biochemical; type: biochemical; settings: 100 µM compound, relative to solvent control, mean (SEM)
Summary of the method: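 Activity expressed as percent of solvent control. Complex I rate came from DCIP reduction at 600 nm (initial linear slope, 15 min) with NADH and decylubiquinone as substrates, plus antimycin A and KCN, in pH 7.5 KPi/BSA buffer. Isolated, thrice freeze-thawed mitochondria used at 0.2 mg/mL.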

C. elegans (N2) complex I (NADH:ubiquinone oxidoreductase), sequence (Q94360 17-199): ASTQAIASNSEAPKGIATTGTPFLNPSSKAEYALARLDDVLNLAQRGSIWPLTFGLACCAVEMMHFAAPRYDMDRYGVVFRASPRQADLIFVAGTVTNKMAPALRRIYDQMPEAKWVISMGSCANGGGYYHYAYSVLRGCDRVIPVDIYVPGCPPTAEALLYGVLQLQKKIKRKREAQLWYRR
C. elegans (N2) complex I (NADH:ubiquinone oxidoreductase), sequence (P24887 whole entry): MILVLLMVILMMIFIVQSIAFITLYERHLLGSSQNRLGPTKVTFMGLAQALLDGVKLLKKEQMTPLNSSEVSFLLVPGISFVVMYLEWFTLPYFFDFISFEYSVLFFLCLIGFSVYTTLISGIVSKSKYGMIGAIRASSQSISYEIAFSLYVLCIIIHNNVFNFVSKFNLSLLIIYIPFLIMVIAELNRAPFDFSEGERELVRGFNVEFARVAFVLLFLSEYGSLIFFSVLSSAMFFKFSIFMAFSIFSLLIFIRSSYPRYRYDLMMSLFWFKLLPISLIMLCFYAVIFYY
C. elegans (N2) complex I (NADH:ubiquinone oxidoreductase), sequence (Q93873 31-482): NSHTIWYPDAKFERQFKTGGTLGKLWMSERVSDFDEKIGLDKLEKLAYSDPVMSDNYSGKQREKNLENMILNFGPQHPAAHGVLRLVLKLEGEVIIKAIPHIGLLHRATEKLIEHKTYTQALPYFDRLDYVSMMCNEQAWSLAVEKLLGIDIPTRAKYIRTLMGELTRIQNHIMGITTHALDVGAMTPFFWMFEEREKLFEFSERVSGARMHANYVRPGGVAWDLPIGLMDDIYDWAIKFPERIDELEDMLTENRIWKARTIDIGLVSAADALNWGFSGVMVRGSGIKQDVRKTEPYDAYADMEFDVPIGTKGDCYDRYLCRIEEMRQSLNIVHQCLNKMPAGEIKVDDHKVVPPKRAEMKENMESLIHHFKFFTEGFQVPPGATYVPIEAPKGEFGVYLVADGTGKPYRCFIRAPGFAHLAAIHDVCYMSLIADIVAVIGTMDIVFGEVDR

SMILES | % Activity Complex I
O=C1OC(c2ccccc2)=NC1=CC=Cc1ccccc1 (mixture of isomers) [NPD8298] | 79.90 (1.23) %
CCCCCCCCCCCCCCCc1cccc(O)c1C(=O)O [Anacardic acid] | 92.95 (1.67) %

same assay, conditions: 100 μM of NPD compound; C. elegans mitochondria; individual biological replicates

SMILES | Percent in vitro activity, Complex I (single replicate Rep1-Rep4)
O=C1OC(c2ccccc2)=NC1=CC=Cc1ccccc1 (mixture of isomers) [NPD8298] | 86.721% and 79.429% and 78.427% and 75.015%
CCCCCCCCCCCCCCCc1cccc(O)c1C(=O)O [Anacardic acid] | 100.303% and 96.789% and 88.185% and 86.534%

same assay, conditions: 100 μM of NPD compound; C. elegans mitochondria; mean of four biological replicates

SMILES | Percent in vitro activity, Complex I (Mean) [%]
O=C1OC(c2ccccc2)=NC1=CC=Cc1ccccc1 (mixture of isomers) [NPD8298] | 79.898
CCCCCCCCCCCCCCCc1cccc(O)c1C(=O)O [Anacardic acid] | 92.953

target: C. elegans complex II (succinate dehydrogenase) (Caenorhabditis elegans, UniProt O62215+P41956+Q09545); test: In vitro complex II activity assay, C. elegans mitochondria; type: biochemical; settings: 100 µM compound, relative to solvent control, mean (SEM)
Protocol: (§1) Mitochondria were isolated from the following free-living nematode strains: C. elegans—N2, CB3474, ECA882, ECA917, ECA1075, ECA1080; C. briggsae—AF16; P. pacificus—PS312; and P. hermaphrodita—B178. With the exception of the P. hermaphrodita strain B178, adult worms of each strain were grown in bulk through liquid culture to obtain mitochondria in sufficient quantities. Due to poor growth in liquid media, mixed stage populations of P. hermaphrodita were washed off and collected from NGM plates seeded with OP50. The isolation of mitochondria from all free-living nematode strains followed the protocol previously outlined in Burns et al.[24]. In brief, a 1 L saturated culture of E. coli HB101 was concentrated 20-fold in 50 mL complete S-medium. ~500,000 L1 worms synchronized from an embryo preparation performed the day prior were added to the S-media/HB101 suspension and grown to adulthood over the course of 3.5 days at 20 °C with shaking at 165 rpm. Following growth, worms were collected in 10 ×15 mL conical tubes and washed 7 times in M9 buffer. Worm suspensions were then combined into a single 15 mL conical tube and diluted to a final volume of 15 mL with M9 buffer. 1 mL aliquots of worm suspension were then distributed to 15 × 1.5 mL screw-cap microcentrifuge tubes and were pelleted at 500 g for 1 min. Excess M9 was aspirated without disturbing the worm pellet. 600 μL ice-cold isolate buffer A (250 mM sucrose, 10 mM Tris (pH 7.5), 1 mM EDTA, 1 mM PMSF (freshly prepared)) and 300 μL cold glass beads were then added to each tube. Tubes were incubated on ice for 10 min, and the worms were then lysed by bead beating (6 x 30 s, with 1 min cooling intervals). Tubes containing worm lysate were centrifuged at 1,000 g for 10 min at 4 °C and the supernatant was transferred to 15 new microcentrifuge tubes on ice. The tubes were centrifuged a second time at 1,000 g for 10 min at 4 °C and the supernatant was once again transferred to 15 new microcentrifuge tubes on ice. These tubes were then centrifuged at 16,000 g for 10 min at 4 °C. The resulting mitochondrial pellet was washed twice by re-suspension in 300 μL of ice-cold isolate buffer B (250 mM sucrose, 10 mM Tris (pH 7.5), 1 mM EDTA). Following the final wash, isolation buffer was aspirated from each tube and the pellets were flash-frozen in ethanol/dry ice and stored at −80 °C until needed.
(§2) The enzymatic activities of individual ETC complexes (I-IV) were assessed spectrophotometrically in isolated mitochondria using a Varioskan LUX Multimode plate reader (ThermoFisher Scientific). Mitochondrial pellets previously isolated were thawed on ice and resuspended in ice-cold isolation buffer (250 mM sucrose, 10 mM Tris (pH 7.5), 1 mM EDTA). The BCA assay (Walker, 1994) was used to quantify the protein concentration of mitochondria suspensions; solutions were diluted to a concentration of 0.2 mg/mL for use in all assays. For the complex I assay, mitochondria pellets were freeze-thawed on ice three times to increase enzyme accessibility. […] 20 μL mitochondria suspension was then added/mixed with a pipette to initiate the reaction. Immediately following the addition of mitochondria, absorbance was measured (complex I and II: 600 nm; complex III and IV: 550 nm) in 30 s intervals over 15 min. Enzymatic activity was determined in each reaction by plotting absorbance versus time and calculating the slope of the curve during the initial linear phase of the reaction. […] Percent activity of each complex was calculated by dividing the enzyme-specific activity of each well by the enzyme-specific activity of the corresponding solvent controls.
Complex II (succinate dehydrogenase) activity was assessed using the DCIP-coupled method previously described in Burns et al.[24].
For preliminary screens of hit compounds, compounds were screened at 100 μM; data are the average of at least three biological replicates. The complex I and II activity assays were used for additional dose-response experiments.

C. elegans complex II (succinate dehydrogenase), sequence (P41956 30-182): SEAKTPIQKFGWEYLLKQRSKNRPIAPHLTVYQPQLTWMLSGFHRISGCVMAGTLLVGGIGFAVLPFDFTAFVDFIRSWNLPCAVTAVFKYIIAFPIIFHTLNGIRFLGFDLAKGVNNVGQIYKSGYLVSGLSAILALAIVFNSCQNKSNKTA
C. elegans complex II (succinate dehydrogenase), sequence (Q09545 22-298): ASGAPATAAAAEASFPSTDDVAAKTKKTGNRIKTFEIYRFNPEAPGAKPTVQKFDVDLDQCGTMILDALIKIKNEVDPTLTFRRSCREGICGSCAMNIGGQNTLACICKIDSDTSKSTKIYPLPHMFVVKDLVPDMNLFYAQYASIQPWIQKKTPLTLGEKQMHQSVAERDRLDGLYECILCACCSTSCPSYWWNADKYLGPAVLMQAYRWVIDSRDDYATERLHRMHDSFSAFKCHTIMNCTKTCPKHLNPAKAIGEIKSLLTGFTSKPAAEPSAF
C. elegans complex II (succinate dehydrogenase), sequence (Q09508 32-646, further chain): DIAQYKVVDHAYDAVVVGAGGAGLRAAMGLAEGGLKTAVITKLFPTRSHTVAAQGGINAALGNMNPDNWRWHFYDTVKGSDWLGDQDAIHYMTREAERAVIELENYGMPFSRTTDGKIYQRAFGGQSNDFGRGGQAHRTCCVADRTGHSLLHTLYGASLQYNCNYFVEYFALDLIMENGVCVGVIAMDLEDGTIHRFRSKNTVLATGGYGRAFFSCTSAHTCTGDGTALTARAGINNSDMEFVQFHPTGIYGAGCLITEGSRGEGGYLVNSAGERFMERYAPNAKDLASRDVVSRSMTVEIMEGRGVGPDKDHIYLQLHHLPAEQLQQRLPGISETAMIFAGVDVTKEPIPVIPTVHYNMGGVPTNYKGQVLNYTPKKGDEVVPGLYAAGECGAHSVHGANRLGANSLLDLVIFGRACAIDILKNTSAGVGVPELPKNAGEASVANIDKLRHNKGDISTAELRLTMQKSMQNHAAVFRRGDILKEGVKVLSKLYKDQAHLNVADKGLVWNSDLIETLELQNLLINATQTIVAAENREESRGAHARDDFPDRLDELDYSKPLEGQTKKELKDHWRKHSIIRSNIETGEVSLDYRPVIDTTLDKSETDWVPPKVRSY
C. elegans complex II (succinate dehydrogenase), sequence (O62215 31-145): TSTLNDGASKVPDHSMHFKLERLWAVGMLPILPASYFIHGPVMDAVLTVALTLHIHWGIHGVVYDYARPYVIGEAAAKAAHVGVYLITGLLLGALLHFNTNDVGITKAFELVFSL

SMILES | % Activity Complex II
O=C1OC(c2ccccc2)=NC1=CC=Cc1ccccc1 (mixture of isomers) [NPD8298] | 110.37 (5.08) %
CCCCCCCCCCCCCCCc1cccc(O)c1C(=O)O [Anacardic acid] | 87.62 (1.34) %

same assay, conditions: 100 μM of NPD compound; C. elegans mitochondria; individual biological replicates

SMILES | Percent in vitro activity, Complex II (single replicate Rep1-Rep4)
O=C1OC(c2ccccc2)=NC1=CC=Cc1ccccc1 (mixture of isomers) [NPD8298] | 109.359% and 85.283% and 134.975% and 111.861%
CCCCCCCCCCCCCCCc1cccc(O)c1C(=O)O [Anacardic acid] | 86.093% and 91.144% and 92.500% and 80.735%

same assay, conditions: 100 μM of NPD compound; C. elegans mitochondria; mean of four biological replicates

SMILES | Percent in vitro activity, Complex II (Mean) [%]
O=C1OC(c2ccccc2)=NC1=CC=Cc1ccccc1 (mixture of isomers) [NPD8298] | 110.370
CCCCCCCCCCCCCCCc1cccc(O)c1C(=O)O [Anacardic acid] | 87.618

tested on: C. elegans complex III (decylubiquinol-cytochrome C reductase); test: In vitro complex III activity assay, C. elegans mitochondria; type: biochemical, Caenorhabditis elegans; settings: 100 µM compound, relative to solvent control, mean (SEM)
Protocol: as §1, §2
Antimycin A-sensitive complex III (decylubiquinol-cytochrome C […]) activity was determined by measuring the reduction of cytochrome C (CytC) as optimized in Luo et al.[59]. Decylubiquinol for complex III assays was prepared fresh as described in Janssen and Boyle, 2019[60].

SMILES | % Activity Complex III
O=C1OC(c2ccccc2)=NC1=CC=Cc1ccccc1 (mixture of isomers) [NPD8298] | 101.94 (2.48) %
CCCCCCCCCCCCCCCc1cccc(O)c1C(=O)O [Anacardic acid] | 0.00 (0.00) %

same assay, conditions: 100 μM of NPD compound; C. elegans mitochondria; individual biological replicates

SMILES | Percent in vitro activity, Complex III (single replicate Rep1-Rep4)
O=C1OC(c2ccccc2)=NC1=CC=Cc1ccccc1 (mixture of isomers) [NPD8298] | 91.530% and 111.178% and 95.430% and 109.622%
CCCCCCCCCCCCCCCc1cccc(O)c1C(=O)O [Anacardic acid] | 0.000%

same assay, conditions: 100 μM of NPD compound; C. elegans mitochondria; mean of four biological replicates

SMILES | Percent in vitro activity, Complex III (Mean) [%]
O=C1OC(c2ccccc2)=NC1=CC=Cc1ccccc1 (mixture of isomers) [NPD8298] | 101.940
CCCCCCCCCCCCCCCc1cccc(O)c1C(=O)O [Anacardic acid] | 0.000

tested on: C. elegans complex IV (cytochrome C oxidase); test: In vitro complex IV activity assay, C. elegans mitochondria; type: biochemical, Caenorhabditis elegans; settings: 100 µM compound, relative to solvent control, mean (SEM)
Protocol: as §1, §2
Complex IV (cytochrome C oxidase) activity was determined by following the oxidation of CytC in the protocol outlined by Janssen and Boyle, 2019[60]. Reduced CytC was prepared fresh by adding 1 μL increments of 1 M dithiothreitol to a 1 mM solution of CytC and vortexing. A colour change from brown to orange/pink signals when CytC has been reduced.

SMILES | % Activity Complex IV
O=C1OC(c2ccccc2)=NC1=CC=Cc1ccccc1 (mixture of isomers) [NPD8298] | 108.05 (2.17) %
CCCCCCCCCCCCCCCc1cccc(O)c1C(=O)O [Anacardic acid] | 15.80 (1.15) %

same assay, conditions: 100 μM of NPD compound; C. elegans mitochondria; individual biological replicates

SMILES | Percent in vitro activity, Complex IV (single replicate Rep1-Rep4)
O=C1OC(c2ccccc2)=NC1=CC=Cc1ccccc1 (mixture of isomers) [NPD8298] | 99.305% and 106.055% and 106.771% and 120.048%
CCCCCCCCCCCCCCCc1cccc(O)c1C(=O)O [Anacardic acid] | 11.285% and 16.095% and 13.805% and 22.025%

same assay, conditions: 100 μM of NPD compound; C. elegans mitochondria; mean of four biological replicates

SMILES | Percent in vitro activity, Complex IV (Mean) [%]
O=C1OC(c2ccccc2)=NC1=CC=Cc1ccccc1 (mixture of isomers) [NPD8298] | 108.045
CCCCCCCCCCCCCCCc1cccc(O)c1C(=O)O [Anacardic acid] | 15.803

tested on: C. elegans; test: C. elegans chemical screens of RIKEN NPD libraries at 50 μM (hit identification in KCN survival and development/viability assays); type: cell-based, Caenorhabditis elegans; settings: screened at 50 μM in triplicate; hit = modified z-score < −3; KCN = KCN survival assay, Dev. & Viability = development/viability assay

SMILES | Hit Type
O=C1OC(c2ccccc2)=NC1=CC=Cc1ccccc1 (mixture of isomers) [NPD8298] | KCN
CCCCCCCCCCCCCCCc1cccc(O)c1C(=O)O [Anacardic acid] | KCN

tested on: L1 wild-type C. elegans; test: not given; settings: not given

SMILES | C. elegans L1 relative motility, 3-hour post 200 µM KCN dilution
O=C1OC(c2ccccc2)=NC1=CC=Cc1ccccc1 (mixture of isomers) [NPD8298] | 0.014

same assay, conditions: caenorhabditis elegans

SMILES | LC50 [µM]
O=C1OC(c2ccccc2)=NC1=CC=Cc1ccccc1 (mixture of isomers) [NPD8298] | 2.57
CCCCCCCCCCCCCCCc1cccc(O)c1C(=O)O [Anacardic acid] | 3.35

tested on: HEK293 cells; test: not given; settings: read-out: HEK293 Cell Viability Assay LC50; 2 days exposure

SMILES | CC50 [µM]
O=C1OC(c2ccccc2)=NC1=CC=Cc1ccccc1 (mixture of isomers) [NPD8298] | > 50
CCCCCCCCCCCCCCCc1cccc(O)c1C(=O)O [Anacardic acid] | > 50
